From patent US12180226B2, “Spirotricycle RIPK1 inhibitors and methods of uses thereof” (Merck Sharp & Dohme LLC, priority 2021, dated 2024) come the findings set out here.

The experiment deals with RIPK1 (recombinant GST-RIPK1 kinase domain, residues 1-327) (Homo sapiens (Human), UniProt Q13546). The experiment can be described thus: RIPK1-ADP-Glo Enzymatic Assay. It is filed as biochemical. To be noted: ADP-Glo; 25 nM GST-RIPK1, 300 μM ATP; assay lower limit ~25 nM; read-out: RIPK1 V0 Ec50. The method in brief:
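ADP-Glo luminescence read after 150 min kinase reaction (300 μM ATP, 3 μM dephosphorylated MBP) using 25 nM Sf21-made GST-kinase domain (1-327), preincubated 30 min with compound. HEPES pH 7.3, 1% DMSO; ten-point 1:3 series from 100000 nM, EC50 via four-parameter sigmoidal regression.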
In general terms: ADP-Glo first removes unused ATP, then detects ADP through luciferase.

Counter-ions that a name gives are not always drawn.

RIPK1 (recombinant GST-RIPK1 kinase domain, residues 1-327), sequence (Q13546 1-327): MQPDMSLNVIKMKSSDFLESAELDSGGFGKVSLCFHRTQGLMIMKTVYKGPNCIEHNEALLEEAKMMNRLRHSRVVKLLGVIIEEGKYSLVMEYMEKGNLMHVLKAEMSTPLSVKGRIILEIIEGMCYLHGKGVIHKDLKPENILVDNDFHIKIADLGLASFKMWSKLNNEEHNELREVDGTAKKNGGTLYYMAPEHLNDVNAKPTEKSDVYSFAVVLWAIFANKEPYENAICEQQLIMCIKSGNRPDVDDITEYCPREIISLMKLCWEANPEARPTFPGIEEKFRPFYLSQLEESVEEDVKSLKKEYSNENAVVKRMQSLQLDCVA

Usually EC50 stands for the concentration giving half of the maximal effect. Consider `Cc1ccccc1[C@@H]1CC[C@H]2OC3(CCN(C(=O)c4ccccc4)CC3)C(=O)N21` [Example 6.135, (5′S,7a′R)-1-(benzene-carbonyl)-5′-(2-meth-ylphenyl)tetrahydro-3′H-spiro[piperidine-4,2′-pyrrolo[2,1-b] [1,3]oxazol]-3′-one], for which the EC50 is 457 nM.

Consider `O=C(c1ccncn1)N1CCC2(CC1)O[C@@H]1CC[C@@H](c3cc(F)cc(F)c3)N1C2=O` [Example 6.63, (5′S,7a′R)-5′-(3,5-difluorophenyl)-1-(pyrimidine-4-carbon-yl)tetrahydro-3′H-spiro[piperidine-4,2′-pyrrolo[2,1-b][1,3]-oxazol]-3′-one], for which the concentration for a half-maximal effect (EC50) came out at 57.9 nM. The same measure for `Cc1ccn(-c2cccc(N3CCC4(CC3)O[C@@H]3CC[C@@H](c5ccccc5)N3C4=O)n2)n1` [Example 4.263, (5′S,7a′R)-1-[6-(3-methyl-1H-pyrazol-1-yl)pyridin-2-yl]-5′-phenyltetrahydro-3′H-spiro[piperidine-4,2′-pyrrolo[2,1-b] [1,3]oxazol]-3′-one]: 26.2 nM. With `O=C(c1cccc(F)c1F)N1CCC2(CC1)O[C@@H]1CC[C@@H](c3ccccc3)N1C2=O` [Example 5.9, (5′S,7a′R)-1-(2,3-difluorobenzene-1-car-bonyl)-5′-phenyltetra-hydro-3′H-spiro[piperi-dine-4,2′-pyrrolo[2,1-b] [1,3]oxazol]-3′-one], the half-maximal effective concentration (EC50) was below 25 nM. The same measure for `COC(=O)c1cc(C)c(N2CCC3(CC2)O[C@@H]2CC[C@@H](c4ccccc4)N2C3=O)nc1C#N` [Example 4.188, methyl 2-cyano-5-methyl-6-[(5′S,7a′R)-3′-oxo-5′-phenyltetrahydro-1H,3′H-spiro[piperidine-4,2′-pyrrolo[2,1-b] [1,3]oxazol]-1-yl]pyridine-3-carboxylate]: 540 nM; for `O=C(c1ccnc(C(F)(F)F)c1F)N1CCC2(CC1)O[C@@H]1CC[C@@H](c3cc(F)cc(F)c3)N1C2=O` [Example 6.74, (5′S,7a′R)-5′-(3,5-difluorophenyl)-1-[3-fluoro-2-(trifluoro-methyl)pyridine-4-carbonyl]tetrahydro-3′H-spiro[piperidine-4,2′-pyrrolo[2,1-b] [1,3]oxazol]-3′-one]: 31.9 nM. Take `O=C(c1cccc(N2CCOCC2)c1)N1CCC2(CC1)O[C@@H]1CC[C@@H](c3cc(F)cc(F)c3)N1C2=O` [Example 6.47, (5′S,7a′R)-5′-(3,5-difluorophenyl)-1-[3-(morpholin-4-yl)-benzene-1-carbonyl]-tetrahydro-3′H-spiro [piperidine-4,2′-pyrrolo[2,1-b][1,3]oxazol]-3′-one]: the EC50 is below 25 nM. With `O=C(c1cocn1)N1CCC2(CC1)O[C@@H]1CC[C@@H](c3cc(F)cc(F)c3)N1C2=O` [Example 5.54, (5′S,7a′R)-5′-(3,5-difluoro-phenyl)-1-(oxazole-4-car-bonyl)tetrahydro-3′H-spiro [piperidine-4,2′-pyrrolo-[2,1-b]oxazol]-3′-one], the EC50 worked out at 27.2 nM. The same measure for `NC(=O)c1ccc(N2CCC3(CC2)O[C@@H]2CC[C@@H](c4ccccc4)N2C3=O)nc1Cl` [Example 4.201, 2-chloro-6-[(5′S,7a′R)-3′-oxo-5′-phenyltetrahydro-1H,3′H-spiro[piperidine-4,2′-pyrrolo[2,1-b] [1,3]oxazol]-1-yl]pyridine-3-carboxamide]: below 25 nM; for `Cc1ocnc1C(=O)N1CCC2(CC1)O[C@@H]1CC[C@@H](c3ccccc3)N1C2=O` [Example 6.146, (5′S,7a′R)-1-(5-methyl-1,3-oxazole-4-carbonyl)-5′-phenyl-tetrahydro-3′H-spiro [piperidine-4,2′-pyrrolo[2,1-b][1,3]oxazol]-3′-one]: 34.9 nM.

As for `CN(C)c1cccc(C(=O)N2CCC3(CC2)O[C@@H]2CC[C@@H](c4cccc(F)c4)N2C3=O)c1` [Example 6.124, (5′S,7a′R)-1-[3-(dimethylamino)-benzene-1-carbonyl]-5′-(3-fluorophenyl) tetrahydro-3′H-spiro [piperidine-4,2′-pyrrolo[2,1-b][1,3]-oxazol]-3′-one], the EC50 was below 25 nM. The same measure for `COc1cc(N2CCC3(CC2)O[C@@H]2CC[C@@H](c4ccccc4)N2C3=O)ncc1C#N` [Example 4.220, 4-methoxy-6-[(5′S,7a′R)-3′-oxo-5′-phenyltetrahydro-1H,3′H-spiro[piperidine-4,2′-pyrrolo[2,1-b] [1,3]oxazol]-1-yl]pyridine-3-carbonitrile]: below 25 nM; for `Cc1ncccc1C(=O)N1CCC2(CC1)O[C@@H]1CC[C@@H](c3cc(F)cc(F)c3)N1C2=O` [Example 6.52, (5′S,7a′R)-5′-(3,5-difluorophenyl)-1-(2-methylpyridine-3-carbonyl)tetrahydro-3′H-spiro[piperidine-4,2′-pyrrolo[2,1-b] [1,3]oxazol]-3′-one]: 528 nM. In the case of `Cc1ccc(F)c(C(=O)N2CCC3(CC2)O[C@@H]2CC[C@@H](c4cc(F)cc(F)c4)N2C3=O)c1` [Example 6.5, (5′S,7a′R)-5′-(3,5-difluorophenyl)-1-(2-fluoro-5-methyl-benzene-1-carbonyl) tetrahydro-3′H-spiro [piperidine-4,2′-pyrrolo[2,1-b][1,3]oxazol]-3′-one] it was below 25 nM. The same measure for `O=C1N2[C@@H](CC[C@H]2c2cncc(F)c2)OC12CCN(c1ccnc3c(F)cnn13)CC2` [Example 4.84, (5′S,7a′R)-1-(3-fluoropyrazolo[1,5-a]pyrimidin-7-yl)-5′-(5-fluoropyridin-3-yl)tetrahydro-3′H-spiro[piperidine-4,2′-pyrrolo[2,1-b]oxazol]-3′-one, TFA salt]: 29.3 nM. On to `O=C1N2[C@@H](CC[C@H]2c2ccccc2F)OC12CN(c1cccc3ncnn13)C2` [Example 13.20, (5′S,7a′R)-1-([1,2,4]triazolo[1,5-a]pyridin-5-yl)-5′-(2-fluorophenyl)tetrahydro-3′H-spiro[azetidine-3,2′-pyrrolo[2,1-b]oxazol]-3′-one, TFA salt], for which the half-maximal effective concentration (EC50) was 24.9 nM.

For the compound `O=C1N2[C@@H](CC[C@H]2c2ccccc2F)OC12CN(c1ccnc(-c3cnn(C(F)F)c3)c1)C2` [Example 4.138, (5′S,7a′R)-1-{2-[1-(difluoromethyl)-1H-pyrazol-4-yl]pyridin-4-yl}-5′-(2-fluorophenyl)tetrahydro-3′H-spiro[azetidine-3,2′-pyrrolo[2,1-b] [1,3]oxazol]-3′-one], the half-maximal effective concentration (EC50) was determined as 145 nM. In the case of `O=C1N2[C@@H](CC[C@H]2c2cc(F)cc(F)c2)OC12CCN(c1nccn3nccc13)CC2` [Example 13.12, (5′S,7a′R)-5′-(3,5-difluorophenyl)-1-(pyrazolo[1,5-a]pyrazin-4-yl)tetrahydro-3′H-spiro[piperidine-4,2′-pyrrolo[2,1-b]oxazol]-3′-one, TFA salt] it was below 25 nM. The same measure for `O=C1N2[C@H](CC13CCN(c1ccnc4c(F)cnn14)CC3)OC[C@H]2c1ccccc1` [Example 4.120, (3′R,7a′S)-1-(3-fluoropyrazolo[1,5-a]pyrimidin-7-yl)-3′-phenyltetrahydro-5′H-spiro[piperidine-4,6′-pyrrolo[2,1-b] [1,3]oxazol]-5′-one]: below 25 nM.

For the compound `O=C(c1cnccn1)N1CCC2(CC1)O[C@@H]1CC[C@@H](c3cc(F)cc(F)c3)N1C2=O` [Example 6.85, (5′S,7a′R)-5′-(3,5-difluorophenyl)-1-(pyrazine-2-carbon-yl)tetrahydro-3′H-spiro[piperidine-4,2′-pyrrolo[2,1-b][1,3]-oxazol]-3′-one], the 50% effective concentration (EC50) turned out to be 36.9 nM.

Take `O=C1N2[C@@H](CC[C@H]2c2ccccc2)OC12CCN(c1cc(-c3ccco3)ccn1)CC2` [Example 4.169, (5′S,7a′R)-1-[4-(furan-2-yl)pyridin-2-yl]-5′-phenyltetrahydro-3′H-spiro[piperidine-4,2′-pyrrolo[2,1-b] [1,3]oxazol]-3′-one]: the half-maximal effective concentration (EC50) was 26.4 nM. On to `O=C1N2[C@@H](CC[C@H]2c2ccccc2)OC12CCN(c1ccnc3c(F)cnn13)CC2` [Example 4.1, (5′S,7a′R)-1-(3-fluoropyrazolo[1,5-a]pyrimidin-7-yl)-5′-phenyltetrahydro-3′H-spiro[piperidine-4,2′-pyrrolo[2,1-b]oxazol]-3′-one], for which the EC50 was below 25 nM. In the case of `CSc1nc(N2CCC3(CC2)O[C@@H]2CC[C@@H](c4cc(F)cc(F)c4)N2C3=O)n2nccc2n1` [Example 4.86, (5′S,7a′R)-5′-(3,5-difluorophenyl)-1-(2-(methylthio)pyrazolo [1,5-a][1,3,5]triazin-4-yl)tetrahydro-3′H-spiro[piperidine-4,2′-pyrrolo[2,1-b]oxazol]-3′-one, TFA salt] it was 269 nM; in that of `O=C1N2[C@@H](CC[C@H]2c2ccccc2)SC12CCN(c1ccnc3c(F)cnn13)CC2` [Example 4.132, (5′S,7a′R)-1-(3-fluoropyrazolo[1,5-a]pyrimidin-7-yl)-5′-phenyltetrahydro-3′H-spiro[piperidine-4,2′-pyrrolo[2,1-b]thiazol]-3′-one], below 25 nM; in that of `O=C(c1cnsc1)N1CCC2(CC1)O[C@@H]1CC[C@@H](c3cc(F)cc(F)c3)N1C2=O` [Example 5.51, (5′S,7a′R)-5′-(3,5-difluoro-phenyl)-1-(isothiazole-4-carbonyl)tetrahydro-3′H-spiro[piperidine-4,2′-pyrrolo[2,1-b]oxazol]-3′-one], 48.3 nM. `N#Cc1cc(N2CCC3(CC2)N=C2CC[C@@H](c4cc(F)cc(F)c4)N2C3=O)ncn1` [Example 4.80, (S)-[5′-(3,5-difluorophenyl)-3′-oxo-6′,7′-dihydro-1H,3′H,5′H-spiro[piperidine-4,2′-pyrrolo[1,2-a]imidazol]-1-yl]pyrimidine-4-carbonitrile]: the EC50 came to 494 nM.
